From patent US10517889B2, “Modulators of SMAD7 expression” (Ionis Pharmaceuticals, Inc., priority 2017, dated 2019)
Strand notation (5' to 3'): a small letter for the sugar, then the base; units joined by * are phosphorothioate-linked, units joined directly phosphodiester-linked; [ ] holds rarer units or linkages, { } end groups; capitals alone tell only the bases. k = constrained ethyl (cEt); [5mC] = 5-methylcytosine; d = 2'-deoxy (DNA)

system: human SMAD7 mRNA; experiment: Antisense inhibition of human SMAD7 mRNA expression in Hep3B cells by 3-10-3 cEt gapmers, 10,000 nM, electroporation (Example 2); assay type: cell-based; details: Hep3B cells, 10,000 nM antisense oligonucleotide, electroporation, approximately 24 hours, RT-PCR primer probe set RTS5062, relative to untreated control cells
Method in brief: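 qRT-PCR (RTS5062) of SMAD7 mRNA, normalised to RIBOGREEN total RNA, gave percent inhibition relative to untreated controls. Hep3B cells at 20,000 per well received 10,000 nM oligonucleotide by electroporation, with ~24 h treatment.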

Substance	% Inhibition
799852 (k[5mC]*kA*kA*dG*dT*dG*dT*d[5mC]*d[5mC]*dA*dT*d[5mC]*dA*kA*kG*k[5mC]; antisense) [compound 799852]	11%
799853 (k[5mC]*k[5mC]*kA*dA*dG*dT*dG*dT*d[5mC]*d[5mC]*dA*dT*d[5mC]*kA*kA*kG; antisense) [compound 799853]	42%
799855 (kA*kG*k[5mC]*d[5mC]*dA*dA*dG*dT*dG*dT*d[5mC]*d[5mC]*dA*kT*k[5mC]*kA; antisense) [compound 799855]	52%
799856 (kG*k[5mC]*kA*dA*dG*d[5mC]*d[5mC]*dA*dA*dG*dT*dG*dT*k[5mC]*k[5mC]*kA; antisense) [compound 799856]	43%
799857 (kA*kG*kA*dA*d[5mC]*dT*dG*dA*dA*dA*dG*d[5mC]*dG*kG*k[5mC]*kG; antisense) [compound 799857]	31%
799859 (kT*kG*kT*dA*dA*dT*dT*dT*dA*dG*d[5mC]*dA*dA*kT*kT*k[5mC]; antisense) [compound 799859]	32%
799860 (kT*kG*k[5mC]*d[5mC]*dG*dA*d[5mC]*dA*d[5mC]*dA*dT*dG*dA*kG*kG*k[5mC]; antisense) [compound 799860]	0%
799871 (kT*kT*kG*dG*dA*d[5mC]*dA*d[5mC]*dA*d[5mC]*dT*d[5mC]*dA*k[5mC]*kT*kG; antisense) [compound 799871]	0%
799872 (kA*kA*kG*dT*dT*dA*dA*dT*d[5mC]*dA*dT*dT*dA*k[5mC]*kT*kT; antisense) [compound 799872]	0%
799873 (kA*kA*kA*dA*dG*dT*dT*dA*dA*dT*d[5mC]*dA*dT*kT*kA*k[5mC]; antisense) [compound 799873]	0%
799874 (k[5mC]*kA*kG*dA*d[5mC]*dT*dG*dG*dA*dA*dA*dA*dG*kT*kT*kA; antisense) [compound 799874]	0%
799875 (kG*kT*kG*d[5mC]*dA*dG*dA*d[5mC]*dT*dG*dG*dA*dA*kA*kA*kG; antisense) [compound 799875]	41%
799876 (kG*k[5mC]*k[5mC]*dA*dG*dG*dG*d[5mC]*d[5mC]*dG*d[5mC]*dA*d[5mC]*kT*kG*kT; antisense) [compound 799876]	55%
799877 (kA*k[5mC]*kT*dT*dT*dA*d[5mC]*dA*dA*d[5mC]*d[5mC]*d[5mC]*dA*kA*kT*kA; antisense) [compound 799877]	52%
799879 (kT*kG*kG*dA*dA*dA*dA*dG*d[5mC]*dT*d[5mC]*d[5mC]*dT*kT*k[5mC]*kT; antisense) [compound 799879]	3%
799880 (kT*k[5mC]*k[5mC]*dG*dA*dT*dG*dG*dA*dA*dA*dA*dG*k[5mC]*kT*k[5mC]; antisense) [compound 799880]	39%
799891 (antisense kA*kT*k[5mC]*dA*dT*dT*dA*dA*dG*d[5mC]*d[5mC]*dA*dA*kT*kT*kT) [compound 799891]	0%
799892 (antisense kG*k[5mC]*kA*dT*d[5mC]*dA*dT*dT*dA*dA*dG*d[5mC]*d[5mC]*kA*kA*kT) [compound 799892]	54%
799893 (antisense kA*kT*kA*d[5mC]*dA*dA*dA*d[5mC]*d[5mC]*dA*d[5mC]*dT*dG*k[5mC]*kA*kT) [compound 799893]	0%
799894 (antisense kT*k[5mC]*k[5mC]*d[5mC]*dA*dA*d[5mC]*dT*dG*dG*dG*d[5mC]*dA*kG*k[5mC]*kT) [compound 799894]	2%
799895 (antisense k[5mC]*kT*kG*dA*dG*dA*dG*dT*dG*dT*dA*dG*dG*kA*kG*kA) [compound 799895]	50%
799896 (antisense k[5mC]*kT*kT*dA*d[5mC]*d[5mC]*dT*d[5mC]*dA*d[5mC]*d[5mC]*d[5mC]*dA*k[5mC]*k[5mC]*kT) [compound 799896]	36%
799897 (antisense kT*k[5mC]*kT*d[5mC]*dT*dT*dA*d[5mC]*d[5mC]*dT*d[5mC]*dA*d[5mC]*k[5mC]*k[5mC]*kA) [compound 799897]	27%
799898 (antisense kG*kT*k[5mC]*dT*d[5mC]*dT*dT*dA*d[5mC]*d[5mC]*dT*d[5mC]*dA*k[5mC]*k[5mC]*k[5mC]) [compound 799898]	37%
799899 (antisense kA*kA*kG*dT*d[5mC]*dT*d[5mC]*dT*dT*dA*d[5mC]*d[5mC]*dT*k[5mC]*kA*k[5mC]) [compound 799899]	33%
799900 (antisense k[5mC]*kA*kA*dG*dT*d[5mC]*dT*d[5mC]*dT*dT*dA*d[5mC]*d[5mC]*kT*k[5mC]*kA) [compound 799900]	51%

same assay, conditions: Hep3B cells, electroporation with 10,000 nM antisense oligonucleotide, approximately 24 hours, SMAD7 mRNA by RT-PCR (RTS5062), relative to untreated control cells

Substance	% Inhibition
799850 (kG*k[5mC]*kA*dA*dT*dA*dA*dA*dT*d[5mC]*dA*dA*d[5mC]*k[5mC]*kA*kG; antisense) [compound 799850]	49%
799861 (kA*k[5mC]*k[5mC]*dG*d[5mC]*dA*dT*dG*d[5mC]*dG*dA*dT*d[5mC]*kG*kG*kT; antisense) [compound 799861]	15%
799862 (k[5mC]*k[5mC]*k[5mC]*dA*d[5mC]*d[5mC]*dG*d[5mC]*dA*dT*dG*d[5mC]*dG*kA*kT*k[5mC]; antisense) [compound 799862]	14%
799863 (kG*kG*k[5mC]*dT*d[5mC]*d[5mC]*d[5mC]*d[5mC]*d[5mC]*dA*d[5mC]*d[5mC]*dG*k[5mC]*kA*kT; antisense) [compound 799863]	16%
799864 (k[5mC]*kT*k[5mC]*dA*dA*dG*d[5mC]*d[5mC]*d[5mC]*dA*d[5mC]*d[5mC]*d[5mC]*k[5mC]*kG*kG; antisense) [compound 799864]	42%
799865 (kG*kG*kG*dA*d[5mC]*dA*dG*dA*d[5mC]*dT*dG*dT*d[5mC]*k[5mC]*k[5mC]*k[5mC]; antisense) [compound 799865]	0%
799866 (k[5mC]*kA*k[5mC]*d[5mC]*dG*d[5mC]*dG*d[5mC]*dA*dG*dG*dG*dA*k[5mC]*kA*kG; antisense) [compound 799866]	0%
799867 (k[5mC]*kT*k[5mC]*d[5mC]*dA*dA*dT*d[5mC]*dT*dG*dG*d[5mC]*dT*kG*kG*kT; antisense) [compound 799867]	24%
799868 (k[5mC]*kA*kT*dA*dA*dA*d[5mC]*dA*dT*dG*dG*dG*d[5mC]*kT*k[5mC]*k[5mC]; antisense) [compound 799868]	34%
799869 (k[5mC]*k[5mC]*kA*dT*dA*dA*dA*d[5mC]*dA*dT*dG*dG*dG*k[5mC]*kT*k[5mC]; antisense) [compound 799869]	16%
799870 (kA*k[5mC]*k[5mC]*d[5mC]*dA*dG*dA*dA*dG*d[5mC]*dT*dG*d[5mC]*kT*kG*kT; antisense) [compound 799870]	18%
799881 (kA*kA*kT*dA*dA*dA*dT*dT*d[5mC]*d[5mC]*dA*dA*dT*kG*k[5mC]*kA; antisense) [compound 799881]	0%
799882 (kT*kT*kT*dG*dA*dA*d[5mC]*dA*dT*dT*dT*dA*d[5mC]*kT*kG*k[5mC]; antisense) [compound 799882]	41%
799883 (kT*k[5mC]*kT*dA*dG*dA*dG*dG*dG*dT*dA*dG*dG*kA*kA*kA; antisense) [compound 799883]	9%
799884 (k[5mC]*kT*k[5mC]*d[5mC]*dA*dG*dT*dT*dT*d[5mC]*dT*dA*dG*kA*kG*kG; antisense) [compound 799884]	0%
799885 (k[5mC]*k[5mC]*k[5mC]*d[5mC]*dA*d[5mC]*dA*dG*dA*dT*d[5mC]*d[5mC]*dA*kA*k[5mC]*kT; antisense) [compound 799885]	0%
799886 (antisense kA*k[5mC]*k[5mC]*dA*dA*dG*d[5mC]*dT*dA*d[5mC]*dT*dT*dT*kT*kG*k[5mC]) [compound 799886]	25%
799887 (antisense k[5mC]*kA*kG*dG*dA*d[5mC]*dA*dG*dT*dT*dT*dT*dT*k[5mC]*k[5mC]*k[5mC]) [compound 799887]	29%
799888 (antisense kG*kG*kA*d[5mC]*dA*dA*dA*dA*d[5mC]*d[5mC]*d[5mC]*d[5mC]*dT*kA*kG*kA) [compound 799888]	22%
799889 (antisense kA*kA*kA*dA*dG*dG*dA*d[5mC]*dA*dA*dA*dA*d[5mC]*k[5mC]*k[5mC]*k[5mC]) [compound 799889]	45%
799890 (antisense k[5mC]*kA*kT*dT*dA*dA*dG*d[5mC]*d[5mC]*dA*dA*dT*dT*kT*kT*k[5mC]) [compound 799890]	41%
799901 (antisense kA*kG*kT*d[5mC]*dA*dA*dG*dT*d[5mC]*dT*d[5mC]*dT*dT*kA*k[5mC]*k[5mC]) [compound 799901]	31%
799902 (antisense kG*kG*kA*dA*dG*dA*d[5mC]*dA*d[5mC]*dA*dA*dG*dG*kG*k[5mC]*kT) [compound 799902]	34%
799903 (antisense kT*kG*k[5mC]*dA*dT*dG*dG*d[5mC]*dA*dT*dT*dG*dT*k[5mC]*kT*kG) [compound 799903]	34%
799905 (antisense kA*kG*kT*d[5mC]*dG*dA*dA*dT*d[5mC]*dA*dT*dT*dT*k[5mC]*kT*k[5mC]) [compound 799905]	53%
799906 (antisense k[5mC]*kA*kT*dG*d[5mC]*dA*dG*dT*d[5mC]*dG*dA*dA*dT*k[5mC]*kA*kT) [compound 799906]	11%
799907 (antisense kA*kG*kT*dA*dA*dA*dG*dG*dG*d[5mC]*d[5mC]*dT*d[5mC]*kT*k[5mC]*kT) [compound 799907]	10%
